Assay results: ChEMBL document CHEMBL5465560, “Selectivity Literature for EUbOPEN Chemogenomic Library” (2024)
Values belong to the compound of their own block, whether it stands above or below them.

What was measured:
[1] = biological target: Calcium/calmodulin-dependent protein kinase type II subunit beta (Homo sapiens) (UniProt Q13554); assay: Selectivity interaction (KinomeScan (DiscoverX)) EUB0001049a CAMK2B; conditions: at 1 µM
[2] = biological target: Dual specificity mitogen-activated protein kinase kinase 1 (Homo sapiens, UniProt Q02750); assay: Selectivity interaction (ActivX KiNativ screen (kinase selectivity in THP-1 cell lysates)) EUB0000639a MAP2K1; type: subcellular; conditions: lysate, at 0.01 µM
[3] = biological target: DNA-dependent protein kinase catalytic subunit (Homo sapiens) (UniProt P78527); assay: Selectivity interaction (ActivX KiNativ screen (kinase selectivity in THP-1 cell lysates)) EUB0000639a PRKDC; type: subcellular; conditions: lysate, at 5 µM
[4] = biological target: T1, Dual specificity mitogen-activated protein kinase kinase 6 (Homo sapiens) (UniProt P52564); assay: Selectivity interaction (Kinase panel (Invitrogen)) EUB0000639a MAP2K6; conditions: at 200 nM
T1 sequence (whole entry): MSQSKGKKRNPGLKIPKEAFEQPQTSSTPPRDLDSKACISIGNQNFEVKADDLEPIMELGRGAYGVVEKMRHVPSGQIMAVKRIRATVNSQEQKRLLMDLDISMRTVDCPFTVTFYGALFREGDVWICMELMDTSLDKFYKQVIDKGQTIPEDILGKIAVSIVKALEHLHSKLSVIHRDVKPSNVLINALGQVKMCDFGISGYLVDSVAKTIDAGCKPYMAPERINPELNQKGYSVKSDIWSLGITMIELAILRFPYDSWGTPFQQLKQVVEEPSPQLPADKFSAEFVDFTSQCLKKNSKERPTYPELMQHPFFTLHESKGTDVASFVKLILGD

[5] = biological target: MAP/microtubule affinity-regulating kinase 3 (Homo sapiens) (UniProt P27448); assay: Selectivity interaction (ActivX KiNativ screen (kinase selectivity in THP-1 cell lysates)) EUB0000639a MARK3; type: subcellular; conditions: lysate, at 5 µM
[6] = biological target: DNA (cytosine-5)-methyltransferase 3B (Homo sapiens) (UniProt Q9UBC3); conditions: at 10 µM
[7] = biological target: MAP kinase-interacting serine/threonine-protein kinase 1 (Homo sapiens) (UniProt Q9BUB5); assay: Selectivity interaction (Kinase panel (literature)) EUB0001199aCl MKNK1; conditions: at 1 µM
[8] = biological target: Mitogen-activated protein kinase 14 (Homo sapiens, UniProt Q16539); assay: Selectivity interaction (Kinase panel (Z-LYTE Assay)) EUB0001632a MAPK14; conditions: at 10 µM
[9] = biological target: CDK6/cyclin D1 (Homo sapiens) (UniProt P24385+Q00534); assay: (§1) Selectivity interaction (Rxn Biology Kinase assay) EUB0001632a CDK6; type: protein-complex assay; conditions: at 10 µM
[10] = biological target: CDK6/cyclin D3 (Homo sapiens) (UniProt P30281+Q00534); assay: as §1; type: protein-complex assay; conditions: at 10 µM
[11] = biological target: Tyrosine-protein kinase Fyn (Homo sapiens) (UniProt P06241); assay: Selectivity interaction (LanthaScreen Eu Kinase Binding Assay) EUB0001632a FYN; conditions: at 10 µM
[12] = biological target: T2, Gamma-aminobutyric acid receptor subunit alpha-1 (Homo sapiens) (UniProt P14867); assay: Selectivity interaction (GPCR panel (PDSP screen)) EUB0001079a GABRA1; conditions: at 10 µM
T2 sequence (whole entry): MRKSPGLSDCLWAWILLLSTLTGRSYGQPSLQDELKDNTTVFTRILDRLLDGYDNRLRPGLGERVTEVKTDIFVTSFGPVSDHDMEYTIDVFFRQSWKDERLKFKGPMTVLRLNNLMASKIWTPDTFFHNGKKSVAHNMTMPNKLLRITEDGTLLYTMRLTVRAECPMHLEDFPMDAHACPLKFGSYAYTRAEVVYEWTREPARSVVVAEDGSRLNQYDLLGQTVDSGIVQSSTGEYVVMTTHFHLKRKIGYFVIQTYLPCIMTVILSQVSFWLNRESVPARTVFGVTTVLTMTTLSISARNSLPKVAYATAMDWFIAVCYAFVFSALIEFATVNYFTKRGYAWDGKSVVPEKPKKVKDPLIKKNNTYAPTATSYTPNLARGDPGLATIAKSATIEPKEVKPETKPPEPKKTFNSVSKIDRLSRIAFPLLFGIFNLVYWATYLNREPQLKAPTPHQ

[13] = biological target: Serine/threonine-protein kinase PAK 3 (Homo sapiens) (UniProt O75914); assay: Selectivity interaction (ProQinase) EUB0000171b PAK3
[14] = biological target: Phosphatidylinositol 4,5-bisphosphate 3-kinase catalytic subunit beta isoform (Homo sapiens) (UniProt P42338); assay: Selectivity interaction (ProQinase) EUB0000171b PIK3CB
[15] = biological target: T3, Platelet-derived growth factor receptor alpha (Homo sapiens, UniProt P16234); assay: Selectivity interaction (KinomeScan (DiscoverX)) EUB0000092b PDGFRA; conditions: at 10 µM
[16] = biological target: Calcium/calmodulin-dependent protein kinase kinase 2 (Homo sapiens) (UniProt Q96RR4); assay: Selectivity interaction (KinomeScan (DiscoverX)) EUB0000092b CAMKK2; conditions: at 10 µM
[17] = biological target: Mitogen-activated protein kinase kinase kinase 4 (Homo sapiens) (UniProt Q9Y6R4); assay: Selectivity interaction (KinomeScan (DiscoverX)) EUB0000045b MAP3K4
[18] = biological target: Ribosomal protein S6 kinase alpha-2 (Homo sapiens) (UniProt Q15349); assay: Selectivity interaction (ActivX KiNativ screen (ex vivo kinase selectivity in human PBMCs)) EUB0001619a RPS6KA2; type: cell-based; conditions: PBMC, at 1 µM
[19] = biological target: Mitogen-activated protein kinase 6 (Homo sapiens) (UniProt Q16659); assay: Selectivity interaction (KinomeScan (DiscoverX)) EUB0000607a MAPK6; conditions: at 10 µM
[20] = biological target: CDK4/Cyclin D3 (Homo sapiens) (UniProt P11802+P30281); assay: (§2) Selectivity interaction (KinomeScan (DiscoverX)) EUB0000607a CDK4; type: protein-complex assay; conditions: at 10 µM
[21] = biological target: Cyclin-dependent kinase 4/cyclin D1 (Homo sapiens) (UniProt P11802+P24385); assay: as §2; type: protein-complex assay; conditions: at 10 µM
[22] = biological target: T3, Platelet-derived growth factor receptor alpha; assay: Selectivity interaction (KinomeScan (DiscoverX)) EUB0000666a PDGFRA; conditions: at 10 µM

Chain of Mitogen-activated protein kinase kinase kinase 4 (Homo sapiens) (Q9Y6R4 whole entry): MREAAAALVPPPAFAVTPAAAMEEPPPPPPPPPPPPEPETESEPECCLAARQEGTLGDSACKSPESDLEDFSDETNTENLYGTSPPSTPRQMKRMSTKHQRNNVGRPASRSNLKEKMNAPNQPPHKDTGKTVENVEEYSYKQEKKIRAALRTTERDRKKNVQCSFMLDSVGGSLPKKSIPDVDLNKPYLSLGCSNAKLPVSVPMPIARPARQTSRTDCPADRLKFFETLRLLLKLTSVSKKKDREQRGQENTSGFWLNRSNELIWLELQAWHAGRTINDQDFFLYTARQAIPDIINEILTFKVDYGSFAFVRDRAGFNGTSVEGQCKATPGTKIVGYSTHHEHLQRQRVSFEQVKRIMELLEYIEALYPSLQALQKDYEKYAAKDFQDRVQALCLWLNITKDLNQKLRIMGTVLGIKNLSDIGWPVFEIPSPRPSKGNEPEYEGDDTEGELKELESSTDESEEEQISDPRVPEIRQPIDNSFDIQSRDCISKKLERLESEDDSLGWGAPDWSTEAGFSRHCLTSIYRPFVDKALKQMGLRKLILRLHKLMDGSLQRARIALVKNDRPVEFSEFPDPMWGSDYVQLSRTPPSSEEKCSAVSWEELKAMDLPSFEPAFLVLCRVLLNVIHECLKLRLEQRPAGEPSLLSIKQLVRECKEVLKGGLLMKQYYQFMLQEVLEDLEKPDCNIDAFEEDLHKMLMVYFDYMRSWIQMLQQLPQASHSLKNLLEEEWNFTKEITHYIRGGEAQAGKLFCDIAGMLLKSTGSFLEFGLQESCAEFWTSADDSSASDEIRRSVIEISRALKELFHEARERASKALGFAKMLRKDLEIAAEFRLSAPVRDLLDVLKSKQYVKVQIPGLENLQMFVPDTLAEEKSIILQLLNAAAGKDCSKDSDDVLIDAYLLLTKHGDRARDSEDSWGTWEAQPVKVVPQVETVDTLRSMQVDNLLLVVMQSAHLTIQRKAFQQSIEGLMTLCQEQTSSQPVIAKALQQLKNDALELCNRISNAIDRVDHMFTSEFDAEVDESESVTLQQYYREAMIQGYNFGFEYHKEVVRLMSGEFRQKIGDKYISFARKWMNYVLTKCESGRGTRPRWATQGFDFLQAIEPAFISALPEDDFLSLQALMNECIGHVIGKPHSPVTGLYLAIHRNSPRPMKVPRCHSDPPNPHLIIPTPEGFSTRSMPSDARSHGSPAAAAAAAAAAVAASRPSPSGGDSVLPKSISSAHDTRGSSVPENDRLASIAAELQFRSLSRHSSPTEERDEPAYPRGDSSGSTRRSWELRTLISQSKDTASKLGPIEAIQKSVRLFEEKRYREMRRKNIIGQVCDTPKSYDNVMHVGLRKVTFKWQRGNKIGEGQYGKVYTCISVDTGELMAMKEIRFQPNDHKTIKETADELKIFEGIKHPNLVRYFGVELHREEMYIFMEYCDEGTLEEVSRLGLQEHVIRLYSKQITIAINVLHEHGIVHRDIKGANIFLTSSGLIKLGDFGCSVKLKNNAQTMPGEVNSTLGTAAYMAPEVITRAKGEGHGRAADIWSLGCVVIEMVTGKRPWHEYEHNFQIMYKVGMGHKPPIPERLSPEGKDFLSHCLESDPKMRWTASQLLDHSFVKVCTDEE
Chain of Serine/threonine-protein kinase PAK 3 (Homo sapiens) (O75914 whole entry, looked up, canonical isoform): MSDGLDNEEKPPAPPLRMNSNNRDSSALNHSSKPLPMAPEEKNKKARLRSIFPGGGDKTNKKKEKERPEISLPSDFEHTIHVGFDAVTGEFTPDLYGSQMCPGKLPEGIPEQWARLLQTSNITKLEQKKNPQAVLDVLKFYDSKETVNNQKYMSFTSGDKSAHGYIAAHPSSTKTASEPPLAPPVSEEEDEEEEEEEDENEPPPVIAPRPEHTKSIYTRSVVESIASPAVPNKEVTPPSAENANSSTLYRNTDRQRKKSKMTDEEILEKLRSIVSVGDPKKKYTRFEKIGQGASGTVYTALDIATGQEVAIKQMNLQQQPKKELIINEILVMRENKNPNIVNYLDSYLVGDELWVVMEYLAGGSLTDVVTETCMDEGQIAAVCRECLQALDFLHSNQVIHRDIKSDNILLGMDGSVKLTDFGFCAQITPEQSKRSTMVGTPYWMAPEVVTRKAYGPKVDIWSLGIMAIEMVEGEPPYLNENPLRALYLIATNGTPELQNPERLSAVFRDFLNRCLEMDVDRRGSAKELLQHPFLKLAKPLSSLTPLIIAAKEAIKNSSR
Chain of Phosphatidylinositol 4,5-bisphosphate 3-kinase catalytic subunit beta isoform (Homo sapiens) (P42338 whole entry, looked up, canonical isoform): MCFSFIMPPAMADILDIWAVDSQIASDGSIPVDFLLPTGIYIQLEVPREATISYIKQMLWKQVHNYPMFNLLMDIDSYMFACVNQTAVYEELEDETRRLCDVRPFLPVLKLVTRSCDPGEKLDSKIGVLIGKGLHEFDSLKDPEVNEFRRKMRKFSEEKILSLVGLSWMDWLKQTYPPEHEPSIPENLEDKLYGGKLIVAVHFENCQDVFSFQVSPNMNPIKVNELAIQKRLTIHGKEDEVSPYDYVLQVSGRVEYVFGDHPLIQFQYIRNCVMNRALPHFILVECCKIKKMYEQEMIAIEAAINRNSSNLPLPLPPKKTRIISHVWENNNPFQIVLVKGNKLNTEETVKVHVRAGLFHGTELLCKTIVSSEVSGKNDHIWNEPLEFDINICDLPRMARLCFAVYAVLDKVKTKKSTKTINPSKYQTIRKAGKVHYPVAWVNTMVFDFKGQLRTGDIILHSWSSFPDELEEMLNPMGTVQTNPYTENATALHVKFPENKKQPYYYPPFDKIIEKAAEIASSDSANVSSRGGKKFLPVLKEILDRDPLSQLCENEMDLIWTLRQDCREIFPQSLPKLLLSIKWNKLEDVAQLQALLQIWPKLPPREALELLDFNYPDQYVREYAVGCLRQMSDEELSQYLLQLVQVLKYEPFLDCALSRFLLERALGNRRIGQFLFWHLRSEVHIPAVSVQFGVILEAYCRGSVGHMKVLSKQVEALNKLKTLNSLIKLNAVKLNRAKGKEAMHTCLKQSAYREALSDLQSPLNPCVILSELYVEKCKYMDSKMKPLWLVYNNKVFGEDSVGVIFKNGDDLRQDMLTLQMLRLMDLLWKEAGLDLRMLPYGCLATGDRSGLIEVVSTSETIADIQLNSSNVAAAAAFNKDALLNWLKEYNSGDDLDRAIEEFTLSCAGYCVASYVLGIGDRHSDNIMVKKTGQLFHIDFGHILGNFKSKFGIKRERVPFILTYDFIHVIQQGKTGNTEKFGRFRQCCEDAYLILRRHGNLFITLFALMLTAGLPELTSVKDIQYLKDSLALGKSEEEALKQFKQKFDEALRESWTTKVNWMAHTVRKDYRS
T3 sequence (P16234 whole entry): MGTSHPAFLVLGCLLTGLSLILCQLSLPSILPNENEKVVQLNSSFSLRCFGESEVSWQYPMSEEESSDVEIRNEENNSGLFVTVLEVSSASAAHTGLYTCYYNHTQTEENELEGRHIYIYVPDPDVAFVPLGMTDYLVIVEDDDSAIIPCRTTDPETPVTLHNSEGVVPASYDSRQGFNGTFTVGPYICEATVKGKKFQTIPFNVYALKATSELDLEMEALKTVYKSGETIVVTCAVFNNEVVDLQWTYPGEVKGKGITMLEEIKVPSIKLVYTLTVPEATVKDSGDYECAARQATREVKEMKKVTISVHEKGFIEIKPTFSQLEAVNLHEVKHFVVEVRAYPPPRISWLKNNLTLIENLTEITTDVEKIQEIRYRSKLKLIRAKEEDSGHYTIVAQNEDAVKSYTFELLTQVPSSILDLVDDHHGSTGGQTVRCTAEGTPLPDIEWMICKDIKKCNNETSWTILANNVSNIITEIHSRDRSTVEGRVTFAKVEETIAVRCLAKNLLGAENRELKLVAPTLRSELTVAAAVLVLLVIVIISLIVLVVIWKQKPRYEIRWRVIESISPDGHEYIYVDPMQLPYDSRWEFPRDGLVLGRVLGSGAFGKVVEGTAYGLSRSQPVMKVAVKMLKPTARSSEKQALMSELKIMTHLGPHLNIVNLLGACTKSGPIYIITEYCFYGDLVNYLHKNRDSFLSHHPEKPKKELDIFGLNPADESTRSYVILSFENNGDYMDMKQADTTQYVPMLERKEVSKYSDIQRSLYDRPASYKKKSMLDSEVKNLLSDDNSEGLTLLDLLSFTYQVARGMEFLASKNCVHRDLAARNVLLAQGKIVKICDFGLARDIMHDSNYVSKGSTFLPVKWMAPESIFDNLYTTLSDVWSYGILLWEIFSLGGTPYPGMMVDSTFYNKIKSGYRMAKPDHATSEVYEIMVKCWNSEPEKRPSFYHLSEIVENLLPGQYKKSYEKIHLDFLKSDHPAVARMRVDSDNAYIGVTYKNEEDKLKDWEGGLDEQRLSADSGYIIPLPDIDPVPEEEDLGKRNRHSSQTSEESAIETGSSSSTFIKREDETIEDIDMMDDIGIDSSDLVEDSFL
Chain of Mitogen-activated protein kinase 6 (Homo sapiens) (Q16659 whole entry): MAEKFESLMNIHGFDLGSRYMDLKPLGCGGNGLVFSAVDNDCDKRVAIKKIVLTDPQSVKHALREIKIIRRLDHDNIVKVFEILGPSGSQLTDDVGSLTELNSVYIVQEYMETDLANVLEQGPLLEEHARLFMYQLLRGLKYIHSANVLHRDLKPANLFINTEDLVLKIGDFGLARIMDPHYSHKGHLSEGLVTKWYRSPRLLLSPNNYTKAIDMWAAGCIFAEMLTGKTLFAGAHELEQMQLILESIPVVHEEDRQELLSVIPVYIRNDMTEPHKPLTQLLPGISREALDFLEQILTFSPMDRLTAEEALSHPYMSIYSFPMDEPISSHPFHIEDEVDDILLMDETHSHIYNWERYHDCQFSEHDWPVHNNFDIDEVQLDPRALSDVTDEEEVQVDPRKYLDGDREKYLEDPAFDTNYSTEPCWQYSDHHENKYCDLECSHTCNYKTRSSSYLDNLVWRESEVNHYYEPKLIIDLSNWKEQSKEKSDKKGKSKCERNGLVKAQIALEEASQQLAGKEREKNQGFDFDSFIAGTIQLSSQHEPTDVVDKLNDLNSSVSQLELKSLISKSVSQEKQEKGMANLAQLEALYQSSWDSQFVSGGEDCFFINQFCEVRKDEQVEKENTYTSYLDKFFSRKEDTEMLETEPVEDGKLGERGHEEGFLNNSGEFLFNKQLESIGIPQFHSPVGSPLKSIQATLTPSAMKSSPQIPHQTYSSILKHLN

Structure (SMILES): COc1cc(Nc2nc(C)cc(-c3cnn4nc(OC)ccc34)n2)cc(C(F)(F)F)c1
% of control [1]: 93%

% of inhibition [2]: -1.6%
% of inhibition [3]: -11.7%
% of inhibition [4]: 1.6%
% of inhibition [5]: 45.6%
Structure (SMILES): CC[C@@H]1[C@H](F)C(=O)N[C@@H]1COc1nccc2cc(C(N)=O)c(OC)cc12 [ZIMLOVISERTIB]

% activity [6]: > 90%
Structure (SMILES): CNCCN1CCC(c2cc(CN(C)C(=O)c3cccc(Oc4ccccc4)c3)ccn2)CC1

% of inhibition [7]: -1%
Structure (SMILES): CN1Cc2nccc(-c3cn(C)nc3-c3ccc(F)cc3)c2C1=O

% of control [8]: -2.35%
% of inhibition [9]: 83.4%
% of inhibition [10]: 52.8%
% of inhibition [11]: -11.6%
Structure (SMILES): Cn1cc(-n2cnc3c(NCc4nc5cc(Cl)c(Cl)cc5[nH]4)nc(N4CCOCC4)nc32)cn1

Structure (SMILES): Nc1cnc(N2CCc3cc(S(=O)(=O)Nc4c(F)cc(Cl)cc4F)cc(N4CCCC4=O)c32)nc1 [TP-020n]
% of inhibition [12]: -1.96%

% of control ([13]; at 1 µM): 98%
% of control ([13]; at 5 µM): 83%
% of control ([14]; at 1 µM): 138%
% of control ([14]; at 5 µM): 166%
Structure (SMILES): C=CC(=O)Nc1cccc(C(=O)Nc2ccc(Nc3cc(-c4[nH]c(SC)nc4C)ccn3)cc2)c1

Structure (SMILES): CCC(=O)N1CCN(c2ccc(-n3c(=O)ccc4cnc5ccc(-c6cnc7ccccc7c6)cc5c43)cc2C(F)(F)F)CC1
% of control [15]: 63%
% of control [16]: 85%

Structure (SMILES): C=CC(=O)Nc1cc(-n2c(=O)ccc3cnc4ccc(-c5ccc(NS(C)(=O)=O)cc5)cc4c32)ccc1C
% of control ([17]; at 1 µM): 89%
% of control ([17]; at 10 µM): 100%

Structure (SMILES): N#Cc1cccc(-c2c[nH]c3ncnc(N4CCOCC4)c23)c1
% of inhibition [18]: 13%

Structure (SMILES): CNC(=O)Nc1ccc(-c2nc(N3CC4CCC(C3)O4)c3cnn(C4CCC5(CC4)OCCO5)c3n2)cc1
% of control [19]: 85%
% of control [20]: 92%
% of control [21]: 90%

Structure (SMILES): O=C(NOC[C@H](O)CO)c1ccc(F)c(F)c1Nc1ccc(I)cc1F
% of control [22]: 96%
